Reference: patent publication US20060275294A1, “METHOD OF PREVENTION AND TREATMENT OF AGING, AGE-RELATED DISORDERS AND/OR AGE-RELATED MANIFESTATIONS INCLUDING ATHEROSCLEROSIS, PERIPHERAL VASCULAR DISEASE, CORONARY ARTERY DISEASE, OSTEOPOROSIS, ARTHRITIS, TYPE 2 DIABETES, DEMENTIA, ALZHEIMERS DISEASE AND CANCER” (priority 2002, published 2006)
Read-outs that look alike come from different tables or passages of the source.

How the values were obtained:
[1] = test system: esophageal carcinoma cell line CE48T/VGH; settings: cited from earlier work
[2] = test system: rat vascular smooth muscle cells; settings: cited from earlier work
[3] = test system: MCF-7 breast cancer cells; settings: absence of estradiol; cited from earlier work
[4] = test system: patients with type 2 diabetes; settings: cited from earlier work
[5] = 80 mg daily; cited from earlier work
[6] = test system: Zucker lean and fatty rats; settings: 50 mg/kg/day vs vehicle; cited from earlier work
[7] = test system: human T, B and myeloma tumor cells; settings: by promoting apoptosis; cited from earlier work
KK/Ay mice = settings: mouse, in vivo; cited from earlier work
[8] = test system: patients with primary hypercholesterolemia; settings: cited from earlier work
[9] = test system: animals with experimental arthritis; settings: prophylactic or therapeutic treatment; cited from earlier work
leukemic cells = settings: concentration- and time-dependent; cited from earlier work
[10] = test system: NOD/SCID mice engrafted with human primary leukemic cells; settings: mouse, in vivo; cited from earlier work
[11] = test system: patients with Paget's bone disease; settings: end of study, cited from earlier work
[12] = test system: diabetic patients with active Charcot neuroarthropathy; settings: cited from earlier work
[13] = severe chronic renal failure or dialysis; cited from earlier work
Interleukin-6 = settings: infusion; cited from earlier work
[14] = test system: human epidermoid head and neck KB and lung H1355 cancer cells; settings: read-out: IC(50) growth inhibition; 48 h exposure; cited from earlier work
[15] = test system: patients with osteoarthritis; assay: Osteoarthritis patients in applicant's clinic; assay type: in vivo, human
osteoblasts = settings: cited from earlier work
[16] = test system: human prostate carcinoma PC-3 cell line; settings: cited from earlier work
[17] = test system: renal cell carcinoma cell line, GRC-1; settings: 20 micromol/L, 72 hours; cited from earlier work
mice = settings: cited from earlier work
[18] = 54 mg/day; cited from earlier work
[19] = test system: cultured human astrocytes; settings: cited from earlier work
[20] = test system: IL-1 beta, IL-6, and TNF-alpha; settings: cited from earlier work
[21] = test system: cultured human pituitary adenoma cells; set-up: mean inhibition of thymidine uptake (+/−SD inhibition of basal) / mean inhibition of thymidine uptake: unit of the concentration uncertain; settings: cited from earlier work
STAT1 and STAT3 = settings: cited from earlier work
T lymphoma cells = settings: cited from earlier work
[22] = test system: three human pancreatic cancer cell types; settings: three cell lines; read-out: mean IC(50) proliferation; cited from earlier work
[23] = test system: human breast cancer MCF-7 cells; settings: cited from earlier work
[24] = biological target: T1, epidermal growth factor receptor tyrosine kinase (Rattus norvegicus, UniProt G3V6K6); settings: SHR vs normotensive Wistar rat cells; cited from earlier work
T1 construct: measured thymidine incorporation in epidermal growth factor-stimulated vascular smooth muscle cells; endogenous in cells; host or cells: aortic vascular smooth muscle cells of SHR and normotensive rats

[25] = test system: New Zealand White rabbits; settings: cited from earlier work
[26] = test system: experimental diabetic rat model; settings: cited from earlier work
[27] = test system: spontaneously hypertensive rats (SHR); settings: cited from earlier work
[28] = test system: orthotopic prostate carcinoma model of PC-3 cells in nude mice; settings: cited from earlier work
[29] = test system: mouse mammary carcinoma 4T1 cells; settings: dose- and time-dependent; cited from earlier work
[30] = test system: murine neuron-like cells (N2a) and primary neurons with Swedish mutant APP; settings: cited from earlier work
NF-kappaB = settings: cited from earlier work
STAT-1 = settings: cited from earlier work
[31] = test system: MMTV-Her-2/neu NF639 cell; settings: cited from earlier work
JB6 cell = settings: cited from earlier work
[32] = test system: human epidermoid carcinoma (A431) cells; settings: cited from earlier work
IKK [33] = biological target: T2, IKK (Homo sapiens, UniProt O14920+O15111); settings: human epithelial cells; cited from earlier work
T2 construct: endogenous in cells; also 'human epithelial cells'

IKK [34] = settings: 50 to 200 μM, intestinal epithelial cell line; cited from earlier work
neutrophil = settings: in vitro; cited from earlier work
Tg APPsw transgenic mice = settings: mouse, in vivo; cited from earlier work
Male Wistar rats = settings: cited from earlier work
rat models = settings: meta-analysis of 13 studies; cited from earlier work
sIL6R = settings: four-day dietary intervention, exchange for LA; cited from earlier work

T2 sequence (O14920 whole entry): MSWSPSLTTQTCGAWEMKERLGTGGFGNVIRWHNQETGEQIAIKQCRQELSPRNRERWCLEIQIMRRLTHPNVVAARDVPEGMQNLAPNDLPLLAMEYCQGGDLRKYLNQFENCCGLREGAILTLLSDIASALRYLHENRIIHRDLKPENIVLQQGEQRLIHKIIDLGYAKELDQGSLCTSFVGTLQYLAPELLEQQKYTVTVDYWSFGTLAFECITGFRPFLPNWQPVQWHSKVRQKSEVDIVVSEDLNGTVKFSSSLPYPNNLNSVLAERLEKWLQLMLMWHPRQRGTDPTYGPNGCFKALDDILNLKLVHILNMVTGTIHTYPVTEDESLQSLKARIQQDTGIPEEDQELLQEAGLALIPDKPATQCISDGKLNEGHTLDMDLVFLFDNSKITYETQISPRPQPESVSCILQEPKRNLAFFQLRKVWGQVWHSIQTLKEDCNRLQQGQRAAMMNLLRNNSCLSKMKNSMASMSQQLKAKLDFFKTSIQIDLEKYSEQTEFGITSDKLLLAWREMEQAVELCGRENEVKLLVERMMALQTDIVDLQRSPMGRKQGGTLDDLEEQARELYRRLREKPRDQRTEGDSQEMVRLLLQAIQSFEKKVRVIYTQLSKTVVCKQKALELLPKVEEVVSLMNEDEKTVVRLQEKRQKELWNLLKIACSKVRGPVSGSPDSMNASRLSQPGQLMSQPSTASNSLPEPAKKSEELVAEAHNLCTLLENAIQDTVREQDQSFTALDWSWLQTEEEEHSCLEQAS
T2 sequence (O15111 whole entry): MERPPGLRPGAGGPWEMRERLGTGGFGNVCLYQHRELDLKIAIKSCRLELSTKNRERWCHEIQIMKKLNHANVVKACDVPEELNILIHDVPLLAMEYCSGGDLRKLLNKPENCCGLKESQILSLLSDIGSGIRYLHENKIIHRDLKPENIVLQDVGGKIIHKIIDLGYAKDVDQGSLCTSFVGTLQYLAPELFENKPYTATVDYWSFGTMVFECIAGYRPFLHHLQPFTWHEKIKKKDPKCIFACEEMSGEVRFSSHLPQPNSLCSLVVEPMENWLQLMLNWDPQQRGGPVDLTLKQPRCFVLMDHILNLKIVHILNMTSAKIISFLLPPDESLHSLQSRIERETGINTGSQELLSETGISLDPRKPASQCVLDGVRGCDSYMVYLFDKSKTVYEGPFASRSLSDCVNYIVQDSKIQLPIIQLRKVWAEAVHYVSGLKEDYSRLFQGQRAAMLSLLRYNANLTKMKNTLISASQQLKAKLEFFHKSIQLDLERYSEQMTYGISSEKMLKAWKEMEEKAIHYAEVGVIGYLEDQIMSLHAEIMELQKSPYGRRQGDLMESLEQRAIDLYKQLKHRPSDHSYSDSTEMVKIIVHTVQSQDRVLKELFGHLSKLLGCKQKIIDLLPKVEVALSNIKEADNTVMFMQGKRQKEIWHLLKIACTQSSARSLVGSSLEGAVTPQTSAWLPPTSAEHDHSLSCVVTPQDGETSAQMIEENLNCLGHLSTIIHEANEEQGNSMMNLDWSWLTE
T2 sequence (Q9Y6K9 whole entry partner): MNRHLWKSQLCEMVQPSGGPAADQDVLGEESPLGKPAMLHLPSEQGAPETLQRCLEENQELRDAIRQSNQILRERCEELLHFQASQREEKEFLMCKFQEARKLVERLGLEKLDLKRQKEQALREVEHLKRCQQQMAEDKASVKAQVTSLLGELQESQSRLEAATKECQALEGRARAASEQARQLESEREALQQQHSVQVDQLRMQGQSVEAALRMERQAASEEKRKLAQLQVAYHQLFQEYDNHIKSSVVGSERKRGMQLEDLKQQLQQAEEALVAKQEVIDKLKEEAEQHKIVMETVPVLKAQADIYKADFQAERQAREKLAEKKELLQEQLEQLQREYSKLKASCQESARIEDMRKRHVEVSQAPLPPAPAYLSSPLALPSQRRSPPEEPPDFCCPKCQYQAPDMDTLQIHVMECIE
T1 sequence (G3V6K6 25-1209): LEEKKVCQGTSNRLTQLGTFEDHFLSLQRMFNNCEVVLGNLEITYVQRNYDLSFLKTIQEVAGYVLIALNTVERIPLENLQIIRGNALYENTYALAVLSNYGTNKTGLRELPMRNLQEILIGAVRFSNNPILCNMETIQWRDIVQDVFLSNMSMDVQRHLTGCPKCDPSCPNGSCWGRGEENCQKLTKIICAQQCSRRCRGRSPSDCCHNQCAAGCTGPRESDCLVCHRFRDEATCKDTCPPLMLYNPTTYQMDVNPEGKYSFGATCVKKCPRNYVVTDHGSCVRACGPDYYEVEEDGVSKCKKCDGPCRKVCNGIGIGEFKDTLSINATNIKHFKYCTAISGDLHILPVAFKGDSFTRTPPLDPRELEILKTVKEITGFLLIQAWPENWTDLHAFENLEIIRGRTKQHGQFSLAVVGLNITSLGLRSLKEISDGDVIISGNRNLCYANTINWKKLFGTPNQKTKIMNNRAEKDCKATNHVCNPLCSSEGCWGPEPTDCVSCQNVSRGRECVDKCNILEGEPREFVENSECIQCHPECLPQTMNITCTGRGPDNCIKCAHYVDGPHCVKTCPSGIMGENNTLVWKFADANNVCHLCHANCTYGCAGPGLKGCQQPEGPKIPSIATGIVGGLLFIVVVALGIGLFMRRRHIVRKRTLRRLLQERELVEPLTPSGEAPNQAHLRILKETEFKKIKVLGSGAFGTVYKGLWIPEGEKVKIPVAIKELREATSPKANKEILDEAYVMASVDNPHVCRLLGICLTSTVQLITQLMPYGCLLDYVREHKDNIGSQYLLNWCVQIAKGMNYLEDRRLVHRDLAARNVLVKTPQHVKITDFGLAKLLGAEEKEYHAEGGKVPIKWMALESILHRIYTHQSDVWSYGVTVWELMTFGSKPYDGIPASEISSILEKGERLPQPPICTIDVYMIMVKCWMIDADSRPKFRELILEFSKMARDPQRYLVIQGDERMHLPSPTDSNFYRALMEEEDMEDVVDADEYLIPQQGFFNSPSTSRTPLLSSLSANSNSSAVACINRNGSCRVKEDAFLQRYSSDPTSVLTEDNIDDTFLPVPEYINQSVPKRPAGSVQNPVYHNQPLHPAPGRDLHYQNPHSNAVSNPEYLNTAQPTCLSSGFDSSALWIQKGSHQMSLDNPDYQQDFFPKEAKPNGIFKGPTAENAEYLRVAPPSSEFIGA

For `COc1cccc(-c2cc(=O)c3ccccc3o2)c1N` [PD98059], the “protection of IL-6 against apoptosis” value [1] is given as “completely blocked” and the “expression of IL-6 mRNA induced by Ang II” value [2] is given as “completely abolished”.
For `CC(C)c1c(C(=O)Nc2ccccc2)c(-c2ccccc2)c(-c2ccc(F)cc2)n1CC[C@@H](O)C[C@@H](O)CC(=O)O` [atorvastatin], the “proliferation of MCF-7 cells” value [3] is given as “inhibit the proliferation”, the “relative risk reduction in the primary endpoint” value ([4]; 10 mg daily for four years) is given as 37% and the “rate reduction of major cardiovascular events” value ([4]; 10 mg daily vs placebo) is given as 37%. For the same compound, the “patients with at least one major cardiovascular event” value ([4]; 10 mg daily, n=1428, median follow-up 3.9 years) was 83, the “acute coronary heart disease events reduced” value ([4]; 10 mg daily) was 36% and the adverse events ([4]; 10 mg daily) was “No excess of adverse events”. The coronary re-vascularisations reduced ([4]; 10 mg daily) was 31%, the death rate reduced ([4]; 10 mg daily) was 27% and the “major cardiovascular event rate” value ([4]; 10 mg daily) was 1.54 per 100 person-years at risk. The “rate of stroke reduced” value ([4]; 10 mg daily) was 48%, the “carotid IMT” value [5] was “significant IMT regression” and the “increase in glucose infusion rate and glucose disposal (Rd)” value [6] was “approximately two-fold”. For the same compound, the “effect on human T, B and myeloma tumor cells” value [7] was “cytotoxic effect”, the insulin resistance index (KK/Ay mice) was “decreased” and the non-HDL-cholesterol level (KK/Ay mice) was “significantly decreased”. The FMD ([8]; 2 weeks) was “higher than baseline”, the IL-6 levels ([8]; 3 and 9 months vs baseline) was “significantly reduced” and the sICAM-1 levels ([8]; FH 80 mg/day, NFH 10 mg/day, 2 weeks to 9 months vs baseline) was “significantly reduced”.
In the case of `O=P(O)(O)C(O)(Cc1cnc2ccccn12)P(=O)(O)O` [YM529], the “severity of experimental arthritis” value [9] is given as “suppressed the severity of disease”, the “growth of leukemic cells incl. P-gp over-expressing cell line” value (leukemic cells) is given as “inhibited the growth” and the survival [10] is given as “prolonged the survival”.
For `NCCC(O)(P(=O)(O)O)P(=O)(O)O` [pamidronate], the HDL-C increased ([11]; 60 mg intravenous, three cycles every 3 months) is listed as 10.3%, the LDL-C decreased ([11]; 60 mg intravenous, three cycles) is listed as 5.5% and the TC/HDL-C decreased [11] is listed as 12.5%. For the same compound, the “bone ALP and total ALP” value [11] was “significantly fell”, the “Urinary deoxypyridinoline (means+/−SEM)” value ([12]; single infusion 90 mg, 4 weeks) was 4.4+/−0.4 nmol/mmol creatinine and the bone-specific alkaline phosphatase ([12]; single infusion 90 mg, after 4 weeks) was 14.1+/−1.2 u/l. The symptoms ([12]; vs placebo group) was “improvement”, the “adverse effect of large intravenous dosages” value [13] was “marked hypocalcemia and/or hypophosphatemia” and the “mean serum levels of Interleukin-6” value (Interleukin-6) was “significantly decreased”. For the same compound, the IC50 [14] was 25 µM, the “pain in patients with osteoarthritis (with and without osteoporosis)” value [15] was “pain reduction” and the “production by osteoblasts of interleukin-6” value (osteoblasts) was “inhibit”.
In the case of `O=c1c(-c2ccc(O)cc2)coc2cc(O)cc(O)c12` [genistein, 4′,5,7-trihydroxyisoflavone], the “IL-6- and OM-mediated effects (growth, resistance to etoposide and cisplatin)” value [16] is listed as “inhibited”, the “band of p27, Western blot” value [17] is listed as 65.4+/−4.7 gray scale value and the “cells in G2 phase” value [17] is listed as 26.2%. The “cells in G(1) phase” value [17] was 73.8%, the “serum levels of autoantibodies to collagen II” value (mice; immunized mice) was “significantly lower” and the “DTH reaction to oxazolone and granulocyte-mediated response” value (mice; vs control mice) was “significantly suppressed”. The “attenuating menopause-related bone loss” value [18] was “as effective as hormone replacement therapy”, the “stimulatory effect of PDGF on sAPPalpha” value [19] was “blocked” and the “LPS-induced increase in IL-1 beta, IL-6, and TNF-alpha mRNA levels” value ([20]; 37 microM) was “completely or more than 80% blocked”. The “LPS activation of NF-kappa B” value [20] was “reduced”, the “LPS-induced IL-6 protein synthesis and IL-6 bioactivity” value [20] was “reduced to baseline levels” and the “mean inhibition of thymidine uptake (+/−SD inhibition of basal)” value ([21]; 74 (unit uncertain)) was 61.96+/−18.96%. For the same compound, the “mean inhibition of thymidine uptake” value ([21]; 740 (unit uncertain)) was 92.65+/−8.59%, the “Epidermal growth factor stimulated thymidine uptake” value ([21]; clinically nonfunctioning adenomas) was “inhibited” and the “CuLDL-induced enhancement of STAT1 and STAT3 Tyr-phosphorylation and DNA-binding activity” value (STAT1 and STAT3) was “markedly prevented”. For the same compound, the “nuclear NF-kappa B levels” value (T lymphoma cells) was “marked reduction”, the IC50 [22] was 223 µM and the “growth of MCF-7 cells” value [23] was “significantly inhibit the growth”. The “expression of IL-6 mRNA induced by Ang II” value [2] was “completely abolished”, the “50% inhibitory dose (IC50) for thymidine incorporation” value [24] was “higher for the SHR vascular smooth muscle cells” and the “average cross sectional area of atherosclerotic lesion” value ([25]; hyperlipidemic plus genistein diet, 4 and half months) was 0.997 mm2. The MMP-3 expression ([25]; western blotting, vs HD group) was “reduction”, the “retinal albumin by Western blot” value ([26]; 300 mg) was “decreased” and the “retinal vascular leakage of radiolabeled sucrose” value ([26]; 150 or 300 mg/kg food, 6 months, vs diabetic control) was “significantly less”. For the same compound, the “wall thickness of the basilar artery” value ([27]; 1 mg/kg chow, 2 months) was “reduced the wall thickness significantly”, the “vasodilatation induced by ACh and Y-26763” value [27] was “significantly improved” and the “inhibition of primary tumor growth” value ([28]; combined with radiation 5 Gy) was 87%. The “inhibition of primary tumor growth” value ([28]; genistein alone, 5 mg/d p.o.) was 30% and the “size of lymph nodes” value ([28]; genistein alone) was “increased the size of lymph nodes”.
For Epigallocatechin-3-gallate [EGCG], the “cell proliferation and apoptosis” value [29] is listed as “inhibition of cell proliferation”, the “reduction of Abeta generation” value [30] is listed as at most 54% and the “NF-kappaB nuclear translocation and IL-6 secretion induced by UVB and UVA” value (NF-kappaB) is listed as “dramatically inhibited”. The “INF-γ-induced STAT1 activation” value (STAT-1; T84 epithelial and THP-1 monocytes/macrophages) was “significantly reduced”, the “interferon-γ-induced STAT-1 activation” value (STAT-1; carcinoma-derived cell lines of non-gut origin) was “blocked” and the “cell growth in culture and soft agar” value [31] was “inhibited”. The “EGF- or TPA-induced JB6 cell transformation” value (JB6 cell) was “inhibit”, the “activator protein-1 (AP-1) activation” value (JB6 cell) was “inhibited” and the “NF-kappaB levels in cytoplasm and nucleus” value ([32]; 10-80 microM, A431 cells and NHEK) was “lowering of NF-kappaB levels”. For the same compound, the “cell growth of A431 cells” value ([32]; dose-dependent, not in NHEK) was “inhibition of cell growth”, the “TNF-α-mediated IKK activation” value (IKK [33]) was “inhibits” and the IKK activity (IKK [34]) was “inhibited”. The “chemokine induced neutrophil chemotaxis” value (neutrophil) was “dramatically inhibit”, the “beta-amyloid (Abeta) levels and plaques” value (Tg APPsw transgenic mice) was “decreased” and the “phosphorylation of c-Jun” value (Male Wistar rats; 10 mg/kg iv then 10 mg/kg/h, all time points) was “markedly attenuated”. The “Plasma IL-6 and creatine phosphokinase levels” value (Male Wistar rats; 10 mg/kg iv then 10 mg/kg/h) was “decreased”, the “myocardial damage and myeloperoxidase activity” value (Male Wistar rats; 10 mg/kg iv then 10 mg/kg/h) was “reduced” and the “reperfusion-induced activation of IKK, degradation of IκB-α, activation of NF-κB” value (Male Wistar rats; rat, in vivo) was “reduced”.
For `CC/C=C\C/C=C\C/C=C\CCCCCCCC(=O)O` [ALA, alpha-linolenic acid], the “ischemia- and reperfusion-induced arrhythmias (incidence of VT and VF)” value (rat models) is listed as “not” and the “reduction of fasting sIL6R concentration” value (sIL6R) is listed as “approximately 11%”.
